Values joined by “and” are separate entries in the source; they are usually repeats but may differ in a detail not shown here. Equal entries are not always repeated. Structures can show the parent of a compound that is named as a salt.

The target of assay [1] is T1, wild type human RORγt ligand binding domain (RORyt LBD) (Homo sapiens, UniProt P51449).
T1 construct: His-tag (N); TurboTEV protease cleavage site (ENLYFQG) (N); made in house; host or cells: E. coli (pHIS1, modified pET vector)
T1 sequence (P51449 258-518): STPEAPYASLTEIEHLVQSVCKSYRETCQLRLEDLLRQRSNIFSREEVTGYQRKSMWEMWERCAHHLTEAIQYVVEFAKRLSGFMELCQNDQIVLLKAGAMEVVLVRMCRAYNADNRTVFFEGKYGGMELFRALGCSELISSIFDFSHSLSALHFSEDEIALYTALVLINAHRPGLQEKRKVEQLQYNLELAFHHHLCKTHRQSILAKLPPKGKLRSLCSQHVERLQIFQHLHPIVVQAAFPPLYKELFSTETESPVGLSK
The assay can be described thus: RORγt ThermoFluor assay (thermal shift, binding affinity KD).

The target of assay [2] is T2, wild type human RORγt LBD (Homo sapiens, UniProt P51449).
T2 construct: expressed in transfected cells; host or cells: HEK293T
T2 sequence (P51449 258-518): T1 sequence (P51449 258-518)
The assay can be described thus: RORγt (LBD) Reporter Assay (GAL4-luciferase, HEK293T cells). The note with it: for IC50: HEK293T cells, value after the comma with ∼, > or < could not be included in the average; for inhibition at 6 µM: HEK-293T, read-out: RORγt (LBD) Reporter Assay, % inhibition @ 6 µM, 6 µM compound concentration. In kind it is cell-based.

As to “3-((4-Chloro-6-((4-chlorophenyl)(hydroxy)(1-methyl-1H-imidazol-5-yl)methyl)-2-methoxyquinolin-3-yl)methyl)benzonitrile•TFA [Example 70]”, in assay [1], the Kd turned out to be 120 nM. Besides, the “RORγt (LBD) Reporter Assay, % inhibition @ 6 µM” value in assay [2] (6 µM compound concentration) was 94%. In addition, the IC50 in assay [2] was found to be 430 nM.
With `COc1nc2ccc(C(O)(c3ccc(Cl)cc3)c3cncn3C)cc2c(C#N)c1Cc1ccc(C(F)(F)F)cc1` (racemic) [Example 55a, 6-((4-Chlorophenyl)(hydroxy)(1-methyl-1H-imidazol-5-yl)methyl)-2-methoxy-3-(4-(trifluoromethyl)benzyl)quinoline-4-carbonitrile], the Kd in assay [1] amounted to 11 nM. Besides, in assay [2], 32 nM corresponded to half-maximal inhibition (IC50) and the inhibition at 6 µM amounted to 104%.
Take `COc1nc2ccc(C(O)(c3ccc(C)nc3C)c3cnc(C)n3C)cc2c(Cl)c1Cc1ccc(C(F)(F)F)cc1` (racemic) [Example 57a, (4-Chloro-2-methoxy-3-(4-(trifluoromethyl)benzyl)quinolin-6-yl)(1,2-dimethyl-1H-imidazol-5-yl)(2,6-dimethylpyridin-3-yl)methanol]: in assay [1], the Kd was 0.03 nM. In assay [2], the IC50 turned out to be 22 nM and the inhibition at 6 µM is 100%.
In the same order, the values of `COc1nc2ccc(C(O)(c3cnnn3C)c3cnc(C)n3C)cc2c(Cl)c1Cc1ccc(F)cc1` (racemic) [Example 65a] are 0.19 nM, 9.9 nM and 74%.
`COc1nc2ccc(C(O)(c3cnnn3C)c3cnc(C)n3C)cc2c(C#N)c1Cc1ccc(F)cc1` (racemic) [Example 66a, 6-((1,2-Dimethyl-1H-imidazol-5-yl)(hydroxy)(1-methyl-1H-1,2,3-triazol-5-yl)methyl)-3-(4-fluorobenzyl)-2-methoxyquinoline4-carbonitrile]: the Kd in assay [1] was 0.59 nM. Moreover, in assay [2], the IC50 is 8.2 nM and the inhibition at 6 µM is 90%.
Turning to `COc1nc2ccc(C(N)(c3ccc(C(F)(F)F)nc3)c3cncn3C)cc2c(Cl)c1Cc1cc2ccccc2s1` (racemic) [Example 71a, (3-(Benzo[b]thiophen-2-ylmethyl)4-chloro-2-methoxyquinolin-6-yl)(1-methyl-1H-imidazol-5-yl)(6-(trifluoromethyl)pyridin-3-yl)methanamine], the Kd in assay [1] came to 61 nM. Moreover, in assay [2], it took 210 nM to reach half-maximal inhibition (IC50) and the inhibition at 6 µM was determined as 98%.
For `CC(=O)N1CCC(C(O)(c2ccccc2)c2ccc3nc(Cl)c(Cc4cncnc4)c(OC(F)F)c3c2)CC1` (racemic) [Example 73a, 1-(4-((2-Chloro-4-(difluoromethoxy)-3-(pyrimidin-5-ylmethyl)quinolin-6-yl)(hydroxy)(phenyl)methyl)piperidin-1-yl)ethanone], in that order: 590 nM, more than 6000 nM and 45%.
In the case of `COc1nc2ccc(C(O)(c3cnnn3C)C3CCN(C(C)=O)CC3)cc2c(Cl)c1Cc1ccc(C(F)(F)F)cc1` (racemic) [Example 74a, 1-(4-((4-Chloro-2-methoxy-3-(4-(trifluoromethyl)benzyl)quinolin-6-yl)(hydroxy)(1-methyl-1H-1,2,3-triazol-5-yl)methyl)piperidin-1-yl)ethanone], the Kd in assay [1] was determined as 3.1 nM. Moreover, in assay [2], the IC50 is approximately 10 nM and the inhibition at 6 µM came to 98%.
In the case of `COc1nc2ccc(C(O)(c3ccc(C)nc3C)C3CN(C(C)=O)C3)cc2c(Cl)c1Cc1ccc(C(F)(F)F)cc1` (racemic) [Example 87a, 1-(3-((4-Chloro-2-methoxy-3-(4-(trifluoromethyl)benzyl)quinolin-6-yl)(2,6-dimethylpyridin-3-yl)(hydroxy)methyl)azetidin-1-yl)ethanone], the Kd in assay [1] stood at 1.8 nM. Further, in assay [2], the IC50 came out at 6.8 nM and the inhibition at 6 µM was found to be 100%.
In the case of `COc1nc2ccc(C(O)(c3ccc(C)nc3C)c3cncn3C)cc2c(Cl)c1Cc1ccc(C(F)(F)F)cc1` (racemic) [Example 88a, (4-Chloro-2-methoxy-3-(4-(trifluoromethyl)benzyl)quinolin-6-yl)(2,6-dimethylpyridin-3-yl)(1-methyl-1H-imidazol-5-yl)methanol], in assay [1], the Kd amounted to 0.3 nM. Also, in assay [2], the IC50 is 4.2 nM and ~20 nM; the inhibition at 6 µM came out at 98%.
For the compound `COc1nc2ccc(C(O)(c3cncn3C)c3cnnn3C)cc2c(Cl)c1Cc1ccc(C(F)(F)F)cc1` (racemic) [Example 89a, (4-Chloro-2-methoxy-3-(4-(trifluoromethyl)benzyl)quinolin-6-yl)(1-methyl-1H-1,2,3-triazol-5-yl)(1-methyl-1H-imidazol-5-yl)methanol], the equilibrium dissociation constant (Kd) in assay [1] amounted to 0.29 nM. For the same compound, in assay [2], inhibition was half-maximal at 4.8 nM (IC50) and the inhibition at 6 µM worked out at 98%.
For `COc1nc2ccc(C(O)(c3sc(C)nc3C)c3cnnn3C)cc2cc1Cc1ccc(C(F)(F)F)cc1` (racemic) [Example 92a, (2,4-Dimethylthiazol-5-yl)(2-methoxy-3-(4-(trifluoromethyl)benzyl)quinolin-6-yl)(1-methyl-1H-1,2,3-triazol-5-yl)methanol], in that order: 92 nM, 79 nM and 101%.
Regarding `COc1c(Cc2ccccc2)c(C(F)(F)F)nc2ccc(C(O)(c3ccccn3)c3cncn3C)cc12` (racemic) [Example 98a, (3-Benzyl-4-methoxy-2-(trifluoromethyl)quinolin-6-yl)(1-methyl-1H-imidazol-5-yl)(pyridin-2-yl)methanol•TFA], the Kd in assay [1] amounted to 590 nM. Moreover, in assay [2], the concentration for half-maximal inhibition (IC50) turned out to be 830 nM and the inhibition at 6 µM is 101%.
In the case of `COc1nc2ccc(C(O)(c3cnc(C)n3C)c3cnc(C)n3C)cc2c(Cl)c1Cc1ccc(OC(F)(F)F)cc1` [Example 76, (4-chloro-2-methoxy-3-(4-(trifluoromethoxy)benzyl)quinolin-6-yl)bis(1,2-dimethyl-1H-imidazol-5-yl)methanol], in assay [1], the Kd came out at 0.03 nM.
The same measure, in the same setting: as for `COc1nc2ccc(C(O)(c3cnnn3C)C3CN(C(N)=O)C3)cc2c(Cl)c1Cc1ccc(C(F)(F)F)cc1` (centres unmarked) [Example 91, 3-((4-Chloro-2-methoxy-3-(4-(trifluoromethyl)benzyl)quinolin-6-yl)(hydroxy)(1-methyl-1H-1,2,3-triazol-5-yl)methyl)azetidine-1-carboxamide], the figure is 0.2 nM; as for `COc1nc2ccc(C(O)(c3c(C)noc3C)c3cnnn3C)cc2c(Cl)c1Cc1ccc(C(F)(F)F)cc1` (centres unmarked) [Example 93, (4-Chloro-2-methoxy-3-(4-(trifluoromethyl)benzyl)quinolin-6-yl)(3,5-dimethylisoxazol-4-yl)(1-methyl-1H-1,2,3-triazol-5-yl)methanol], 0.6 nM; as for `COc1nc2ccc(C(O)(c3c(C)noc3C)c3cnnn3C)cc2c(C#N)c1Cc1ccc(C(F)(F)F)cc1` (centres unmarked) [Example 94, 6-((3,5-Dimethylisoxazol-4-yl)(hydroxy)(1-methyl-1H-1,2,3-triazol-5-yl)methyl)-2-methoxy-3-(4-(trifluoromethyl)benzyl)quinoline-4-carbonitrile], 0.48 nM.
Same read-out and setting: as for `COCCN(C)c1nc2ccc(C(O)(c3ccc(C(F)(F)F)nc3)c3cncn3C)cc2c(Cl)c1Cc1ccc(-n2cccn2)cc1` (centres unmarked) [Example 128, {4-Chloro-2-[(2-methoxyethyl)(methyl)amino]-3-[4-(1H-pyrazol-1-yl)benzyl]quinolin-6-yl}(1-methyl-1H-imidazol-5-yl)[6-(trifluoromethyl)pyridin-3-yl]methanol], the figure is 97 nM.

As a reminder, the Kd is the free concentration of one partner at which half of the binding sites on the other are occupied at equilibrium, for simple one-to-one binding. One may read the IC50 as the midpoint of a concentration-inhibition curve. A low value points to greater potency.

For the origin of these results see patent publication EP3057951B1, “METHYLENE LINKED QUINOLINYL MODULATORS OF ROR-GAMMA-T” (Janssen Pharmaceutica NV, priority 2013, dated 2015).
